From patent publication US20240208992A1, “MACROCYCLES AS CFTR MODULATORS” (Idorsia Pharmaceuticals Ltd, priority 2021, published 2024)

Molecular target: human F508del-CFTR (Homo sapiens, UniProt P13569, DEL508-508)
Test: F508del-CFTR cell surface expression (corrector activity), DiscoveRx ß-galactosidase complementation chemiluminescence assay in recombinant U2OS cell line;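 also: U2OS cells co-expressing ProLink-tagged F508del-CFTR and a membrane-anchored enzyme acceptor, where more surface CFTR restores β-galactosidase activity measured by chemiluminescence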
Settings: U2OS cell line, 16h compound incubation; for EC50: EC50, F508del-CFTR cell surface expression, geomean values; for Emax: U2OS, in relation to the Emax of the corrector lumacaftor (=100%), arithmetic mean values

Chain of human F508del-CFTR (P13569 with tags, fused parts or gaps DEL508-508): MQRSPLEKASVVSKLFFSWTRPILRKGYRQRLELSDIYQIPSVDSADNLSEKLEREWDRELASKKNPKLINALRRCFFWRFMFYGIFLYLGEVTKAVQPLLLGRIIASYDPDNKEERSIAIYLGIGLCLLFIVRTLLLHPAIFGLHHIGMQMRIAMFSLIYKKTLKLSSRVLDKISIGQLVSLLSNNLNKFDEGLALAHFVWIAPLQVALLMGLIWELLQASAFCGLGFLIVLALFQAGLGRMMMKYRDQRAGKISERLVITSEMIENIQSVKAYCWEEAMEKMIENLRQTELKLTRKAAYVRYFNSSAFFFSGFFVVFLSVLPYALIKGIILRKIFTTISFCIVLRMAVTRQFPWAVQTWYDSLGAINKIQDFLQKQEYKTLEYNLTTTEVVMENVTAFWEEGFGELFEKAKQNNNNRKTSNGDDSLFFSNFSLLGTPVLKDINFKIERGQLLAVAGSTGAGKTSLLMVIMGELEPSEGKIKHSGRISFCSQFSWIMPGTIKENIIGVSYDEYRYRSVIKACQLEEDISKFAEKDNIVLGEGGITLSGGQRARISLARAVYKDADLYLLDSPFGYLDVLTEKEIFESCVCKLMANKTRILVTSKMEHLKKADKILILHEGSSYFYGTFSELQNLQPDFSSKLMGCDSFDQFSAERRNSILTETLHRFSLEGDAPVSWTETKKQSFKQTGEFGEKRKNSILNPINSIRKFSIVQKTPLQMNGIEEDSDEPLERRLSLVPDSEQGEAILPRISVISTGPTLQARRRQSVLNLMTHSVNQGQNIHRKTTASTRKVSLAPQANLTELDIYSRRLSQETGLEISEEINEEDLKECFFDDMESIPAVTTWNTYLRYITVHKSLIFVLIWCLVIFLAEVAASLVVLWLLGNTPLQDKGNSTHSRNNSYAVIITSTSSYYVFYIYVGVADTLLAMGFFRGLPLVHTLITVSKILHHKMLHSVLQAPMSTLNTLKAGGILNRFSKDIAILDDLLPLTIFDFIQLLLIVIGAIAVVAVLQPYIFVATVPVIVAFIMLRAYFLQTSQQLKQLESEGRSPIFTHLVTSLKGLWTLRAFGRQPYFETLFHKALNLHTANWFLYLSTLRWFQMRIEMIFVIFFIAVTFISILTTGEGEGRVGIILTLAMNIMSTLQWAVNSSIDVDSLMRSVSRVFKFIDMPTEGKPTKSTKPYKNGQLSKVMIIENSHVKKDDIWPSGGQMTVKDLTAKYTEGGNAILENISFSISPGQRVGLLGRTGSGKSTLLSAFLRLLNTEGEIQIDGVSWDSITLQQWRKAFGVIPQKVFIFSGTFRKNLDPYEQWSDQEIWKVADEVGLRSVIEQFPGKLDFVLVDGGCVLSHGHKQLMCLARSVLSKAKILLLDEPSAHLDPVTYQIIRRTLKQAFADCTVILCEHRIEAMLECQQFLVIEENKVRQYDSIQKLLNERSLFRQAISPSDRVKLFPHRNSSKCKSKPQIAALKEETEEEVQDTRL

Compound | EC50 [nM] | Emax [%]
Cc1cc2c(cn1)C(=O)N[C@H](C(=O)NCCc1ccc3c(c1)OCO3)CC(=O)N(C)[C@@H](CC(C)C)C(=O)N(CCC1CCCCC1)CC(=O)N[C@H](Cc1ccccc1)CO2 [Example 270, (3R,9S,13S)-N-(2-(benzo[d][1,3]dioxol-5-yl)ethyl)-3-benzyl-7-(2-cyclohexylethyl)-9-isobutyl-10,18-dimethyl-5,8,11,15-tetraoxo-2,3,4,5,6,7,8,9,10,11,12,13,14,15-tetradecahydropyrido[3,4-p][1]oxa[4,7,10,14]tetraazacycloheptadecine-13-carboxamide] | 423 | 172
COc1cccc(CCNC(=O)[C@@H]2CC(=O)N(C)[C@@H](CC(C)C)C(=O)N(CCC3CCCCC3)CC(=O)N[C@H](Cc3ccccc3)COc3cc(C)ncc3C(=O)N2)c1 [Example 271, (3R,9S,13S)-3-benzyl-7-(2-cyclohexylethyl)-9-isobutyl-N-(3-methoxyphenethyl)-10,18-dimethyl-5,8,11,15-tetraoxo-2,3,4,5,6,7,8,9,10,11,12,13,14,15-tetradecahydropyrido[3,4-p][1]oxa[4,7,10,14]tetraazacycloheptadecine-13-carboxamide] | 266 | 185
COc1cc(OC)c2c(c1)OC[C@@H](Cc1ccccc1)NC(=O)CN(CCC1CCCCC1)C(=O)[C@H](C)N(C)C(=O)C[C@@H](C(=O)NCCc1ccc3c(c1)OCO3)NC2=O [Example 272, (3R,9S,13S)-N-(2-(benzo[d][1,3]dioxol-5-yl)ethyl)-3-benzyl-7-(2-cyclohexylethyl)-16,18-dimethoxy-9,10-dimethyl-5,8,11,15-tetraoxo-2,3,4,5,6,7,8,9,10,11,12,13,14,15-tetradecahydrobenzo[p][1]oxa[4,7,10,14]tetraazacycloheptadecine-13-carboxamide] | 374 | 176
COc1cccc(CCNC(=O)[C@@H]2CC(=O)N(C)[C@@H](C)C(=O)N(CCC3CCCCC3)CC(=O)N[C@H](Cc3ccccc3)COc3cc(OC)cc(OC)c3C(=O)N2)c1 [Example 273, (3R,9S,13S)-3-benzyl-7-(2-cyclohexylethyl)-16,18-dimethoxy-N-(3-methoxyphenethyl)-9,10-dimethyl-5,8,11,15-tetraoxo-2,3,4,5,6,7,8,9,10,11,12,13,14,15-tetradecahydrobenzo[p][1]oxa[4,7,10,14]tetraazacycloheptadecine-13-carboxamide] | 365 | 169
COc1cc(OC)c2c(c1)OC[C@@H](Cc1ccccc1)NC(=O)CN(CCC1CCCCC1)C(=O)[C@H](CC(C)C)N(C)C(=O)C[C@@H](C(=O)NCCc1ccc3c(c1)OCCC3)NC2=O [Example 275, (3R,9S,13S)-3-benzyl-N-(2-(chroman-7-yl)ethyl)-7-(2-cyclohexylethyl)-9-isobutyl-16,18-dimethoxy-10-methyl-5,8,11,15-tetraoxo-2,3,4,5,6,7,8,9,10,11,12,13,14,15-tetradecahydrobenzo[p][1]oxa[4,7,10,14]tetraazacycloheptadecine-13-carboxamide] | 148 | 333
COc1cc(OC)c2c(c1)OC[C@@H](Cc1ccccc1)NC(=O)CN(CCC1CCCCC1)C(=O)[C@H](CC(C)C)N(C)C(=O)C[C@@H](C(=O)NCCc1ccc3c(c1)OCC3)NC2=O [Example 276, (3R,9S,13S)-3-benzyl-7-(2-cyclohexylethyl)-N-(2-(2,3-dihydrobenzofuran-6-yl)ethyl)-9-isobutyl-16,18-dimethoxy-10-methyl-5,8,11,15-tetraoxo-2,3,4,5,6,7,8,9,10,11,12,13,14,15-tetradecahydrobenzo[p][1]oxa[4,7,10,14]tetraazacycloheptadecine-13-carboxamide] | 91 | 333
COc1cccc(CCNC(=O)[C@@H]2CC(=O)N(C)[C@@H](CC(C)C)C(=O)N(C)CC(=O)N[C@H](Cc3ccccc3)COc3cccc(F)c3C(=O)N2)c1 [Example 277, (3R,9S,13S)-3-benzyl-16-fluoro-9-isobutyl-N-(3-methoxyphenethyl)-7,10-dimethyl-5,8,11,15-tetraoxo-2,3,4,5,6,7,8,9,10,11,12,13,14,15-tetradecahydrobenzo[p][1]oxa[4,7,10,14]tetraazacycloheptadecine-13-carboxamide] | 830 | 134
CC(C)C[C@H]1C(=O)N(C)CC(=O)N[C@H](Cc2ccccc2)COc2cccc(F)c2C(=O)N[C@H](C(=O)NCCc2ccc3c(c2)OCO3)CC(=O)N1C [Example 278, (3R,9S,13S)-N-(2-(benzo[d][1,3]dioxol-5-yl)ethyl)-3-benzyl-16-fluoro-9-isobutyl-7,10-dimethyl-5,8,11,15-tetraoxo-2,3,4,5,6,7,8,9,10,11,12,13,14,15-tetradecahydrobenzo[p][1]oxa[4,7,10,14]tetraazacycloheptadecine-13-carboxamide] | 709 | 167
CC(C)C[C@H]1C(=O)N(C)CC(=O)N[C@H](Cc2ccccc2)COc2cccc(Cl)c2C(=O)N[C@H](C(=O)NCCc2ccc3c(c2)OCO3)CC(=O)N1C [Example 279, (3R,9S,13S)-N-(2-(benzo[d][1,3]dioxol-5-yl)ethyl)-3-benzyl-16-chloro-9-isobutyl-7,10-dimethyl-5,8,11,15-tetraoxo-2,3,4,5,6,7,8,9,10,11,12,13,14,15-tetradecahydrobenzo[p][1]oxa[4,7,10,14]tetraazacycloheptadecine-13-carboxamide] | 643 | 112
CCOc1cccc2c1C(=O)N[C@H](C(=O)NCCc1cccc(OC)c1)CC(=O)N(C)[C@@H](CC(C)C)C(=O)N1CCCC[C@@H]1C(=O)N[C@H](Cc1ccccc1)CO2 [Example 280, (7S,11S,20R,22aR)-20-benzyl-14-ethoxy-7-isobutyl-N-(3-methoxyphenethyl)-8-methyl-6,9,13,22-tetraoxo-1,3,4,6,7,8,9,10,11,12,13,19,20,21,22,22a-hexadecahydro-2H-benzo[p]pyrido[2,1-f][1]oxa[4,7,10,14]tetraazacycloheptadecine-11-carboxamide] | 297 | 188
COc1nccc2c1C(=O)N[C@H](C(=O)NCCc1ccc3c(c1)OCO3)CC(=O)N(C)[C@@H](CC(C)C)C(=O)N(CCC1CCCCC1)CC(=O)N[C@H](Cc1ccccc1)CO2 [Example 281, (3R,9S,13S)-N-(2-(benzo[d][1,3]dioxol-5-yl)ethyl)-3-benzyl-7-(2-cyclohexylethyl)-9-isobutyl-16-methoxy-10-methyl-5,8,11,15-tetraoxo-2,3,4,5,6,7,8,9,10,11,12,13,14,15-tetradecahydropyrido[3,4-p][1]oxa[4,7,10,14]tetraazacycloheptadecine-13-carboxamide] | 110 | 361
COc1cccc(CCNC(=O)[C@@H]2CC(=O)N(C)[C@@H](CC(C)C)C(=O)N(CCC3CCCCC3)CC(=O)N[C@H](Cc3ccccc3)COc3ccnc(OC)c3C(=O)N2)c1 [Example 282, (3R,9S,13S)-3-benzyl-7-(2-cyclohexylethyl)-9-isobutyl-16-methoxy-N-(3-methoxyphenethyl)-10-methyl-5,8,11,15-tetraoxo-2,3,4,5,6,7,8,9,10,11,12,13,14,15-tetradecahydropyrido[3,4-p][1]oxa[4,7,10,14]tetraazacycloheptadecine-13-carboxamide] | 114 | 360
CCOc1cccc2c1C(=O)N[C@H](C(=O)NCCc1ccc3c(c1)OCCO3)CC(=O)N(C)[C@@H](CC(C)C)C(=O)C1CCC[C@@H](N1)C(=O)N[C@H](Cc1ccccc1)CO2 [Example 283, (7S,11S,20R,22aR)-20-benzyl-N-(2-(2,3-dihydrobenzo[b][1,4]dioxin-6-yl)ethyl)-14-ethoxy-7-isobutyl-8-methyl-6,9,13,22-tetraoxo-1,3,4,6,7,8,9,10,11,12,13,19,20,21,22,22a-hexadecahydro-2H-benzo[p]pyrido[2,1-f][1]oxa[4,7,10,14]tetraazacycloheptadecine-11-carboxamide] | 272 | 231
COc1cccc2c1C(=O)N[C@H](C(=O)NCCc1ccc3c(c1)OCO3)CC(=O)N(C)[C@@H](CC(C)C)C(=O)N(C[C@H]1CCCCO1)CC(=O)N[C@H](Cc1ccccc1)CO2 [Example 305, (3R,9S,13S)-N-(2-(benzo[d][1,3]dioxol-5-yl)ethyl)-3-benzyl-9-isobutyl-16-methoxy-10-methyl-5,8,11,15-tetraoxo-7-(((R)-tetrahydro-2H-pyran-2-yl)methyl)-2,3,4,5,6,7,8,9,10,11,12,13,14,15-tetradecahydrobenzo[p][1]oxa[4,7,10,14]tetraazacycloheptadecine-13-carboxamide] | 533 | 123
COc1cccc2c1C(=O)N[C@H](C(=O)NCCc1ccc3c(c1)OCO3)CC(=O)N(C)[C@@H](CC(C)C)C(=O)N(C[C@@H]1CCCCO1)CC(=O)N[C@H](Cc1ccccc1)CO2 [Example 306, (3R,9S,13S)-N-(2-(benzo[d][1,3]dioxol-5-yl)ethyl)-3-benzyl-9-isobutyl-16-methoxy-10-methyl-5,8,11,15-tetraoxo-7-(((S)-tetrahydro-2H-pyran-2-yl)methyl)-2,3,4,5,6,7,8,9,10,11,12,13,14,15-tetradecahydrobenzo[p][1]oxa[4,7,10,14]tetraazacycloheptadecine-13-carboxamide] | 923 | 139
COc1cccc2c1C(=O)N[C@H](C(=O)NCCc1ccc3c(c1)OCO3)CC(=O)N(C)[C@@H](CC1CCCC1)C(=O)N(C[C@H]1CCCCO1)CC(=O)N[C@H](Cc1ccccc1)CO2 [Example 307, (3R,9S,13S)-N-(2-(benzo[d][1,3]dioxol-5-yl)ethyl)-3-benzyl-9-(cyclopentylmethyl)-16-methoxy-10-methyl-5,8,11,15-tetraoxo-7-(((R)-tetrahydro-2H-pyran-2-yl)methyl)-2,3,4,5,6,7,8,9,10,11,12,13,14,15-tetradecahydrobenzo[p][1]oxa[4,7,10,14]tetraazacycloheptadecine-13-carboxamide] | 423 | 113
